Tested on: expanded naïve CD4+ T cells co-cultured with PBMCs
Assay: Expanded CD4 positive T cell assay (cytokine release, ELISA)
Format: cell-based, human
Conditions: for response across donors (frequency of responding wells, IL-10 and IFN-γ): three different donors expressing HLA-DRB1*1101, FIGS. 7A-7B
From the text: To improve the robustness of the assay and decrease the well-to-well variation, a novel assay system was developed. In effect, by expanding the naïve CD4+ T cells, the number of antigen specific T cells can be increased per well with the goal of detecting a responding well with greater frequency. To expand the naïve CD4+ T cells, the cells are first isolated from PBMCs using negative selection with antibody coated magnetic beads. The naïve CD4+ T cells are then polyclonally expanded using anti-CD3 and anti-CD28 Dynabeads. An expansion of up to 20-fold was observed. The beads were then removed, and the cells were rested for 24 hours. The expanded CD4+ T cells were then co-cultured with PBMCs at a 4:1 ratio and stimulated with peptides twice every 3 days. IL-2 helper cytokine was included. Peptides were utilized at 40 μg/mL. After two peptide stimulations, IL-10 levels in the range of 20-50 picograms […]/mL were observed as compared to 5-10 pg/mL for negative controls (vehicle only) (see FIG. 3C).
PBMCs were isolated from healthy HLA typed donors of different ages, ethnicities, and genders. […] 100 million PBMC were thawed into media (Rosewell Park Memorial Institute (RPMI) 1640 medium, 10% fetal bovine serum (FBS) Heat Inactivated, 1% Penicillin-Streptomycin) and rested at 37° C., 5% CO2 overnight.
Naïve CD4+ T cells are isolated from rested PBMC using the BioLegend MojoSort™ Human CD4 T Cell Isolation Kit. Isolated T cells were counted and cultured at a density of 1×10^6 cells/mL of media with 30 units per milliliter (U/mL) of IL-2. T cells were activated and expanded using ThermoFisher Dynabeads™ Human T-Activator CD3/CD28. Beads were added at a 1:1 bead-to-cell ratio. T cells are incubated at 37° C., 5% CO2 for approximately 1 week, splitting in order to maintain the 1×10^6 cells/mL seeding density and with the addition of fresh media. T cells often saw a 20- to 30-fold expansion.
Expansion beads were magnetically removed from the T cell culture. Remaining T cells were cultured at 1×10^6 cells/mL in media and the IL-2 level was dropped to 10 units/milliliter (U/mL). T cells are rested 24 hours. Meanwhile, another vial of PBMC of the same donor was thawed and similarly rested overnight in media. 1 million expanded T cells and 0.25 million PBMC were cocultured in 1 mL of media containing 10 U/mL IL-2 in 24 well plates. Each well was stimulated with 40 μg of peptide with at least 6 well replicates for each peptide. Sterile water with 10% DMSO was used as a negative control. Plates were incubated at 37° C., 5% CO2 for 3 days. After 3 days, supernatants of each well were collected into Eppendorf tubes and frozen. Cells were resuspended in fresh media containing 10 U/mL IL-2. Cells were restimulated with 40 μg of peptide in the same format. Plates were incubated for another 3 days (see FIG. 2). Supernatants were collected after the second stimulation and cell culture was terminated.
IL-10 and IFN-γ cytokine concentrations were determined for samples. 96-well microwell plates were coated with capture antibody and incubated overnight at 4° C. Frozen supernatants were thawed and assayed using ELISA MAX™ Deluxe kits.
To quantify the number of responding wells for each peptide, a one sample t-test was utilized where signal from each well was compared against the distribution of negative wells from vehicle only controls. The negative distribution was normal (based on Shapiro Wilk test). […] As such, for each peptide, a fraction of responding wells was derived. The fraction of responding wells after the first and second peptide stimulations in the expanded CD4+ T cell assay are shown in FIGS. 5A-5D. Moreover, the fraction of responding wells was further subjected to the statistical test for proportions which takes into account the sample size.

Substance	IFN-γ release (peptide 40 μg/mL, FIGS. 5A-5D)	specificity for IL-10 production vs IFN-γ (three different donors expressing HLA-DRB1*1101)	response across donors (frequency of responding wells, IL-10 and IFN-γ)	IFN-γ signal (upon double stimulation)	IFN-γ signal (upon single stimulation)
FAVPAKQAKKTLT [KBP82]	minimal levels	high specificity	respond across donors		
KLAKRLLLSMNQ [KBP63]			respond across donors		
Keyhole limpet haemocyanin [KLH, reference compound]				150 pg/mL	80 pg/mL
LALLAPKLLRRF [KBP73]			respond across donors		
